Experimental data as given in US12440471B2, “Compositions and methods for the treatment of bronchopulmonary dysplasia (BPD) and BPD-associated pulmonary hypertension” (AyuVis Research, Inc., priority 2021, dated 2025).

Experiments:
[1] = PK study in rat pups by SC or IV (plasma, BALF); assay type: in vivo
Text: Pharmacokinetic (PK) Profile of AVR-48 (compound 8). The PK studies of AVR-48 were developed and designed in-house, by high performance liquid chromatography (HPLC), in both mouse and rat pups by IV, IP and IN dosing, to check the bioavailability of the drug formulated as solution, suspension or nanoparticle encapsulation in plasma, broncho-alveolar lavage fluid (BALF) and lung tissues.
A sustained level of AVR-48 was observed only where T1/2 was not estimable. For the IV dosed animals only, maximum concentration was followed by decline on PK Day 1 but was followed by sustained level of AVR-48 on PK Day 3. T1/2 was also not estimable. […] In summary, exposure to AVR-48 increased for 100 mg/kg/day for both routes after 3 days of twice daily administration but not for the 150 mg/kg/day groups.
Animals. C57BL/6J mice were purchased from The Jackson Laboratory (Bar Harbor, ME, USA) and were maintained in a breeding colony at Drexel University, Philadelphia, PA, USA. Animal procedures were performed in accordance with the NIH Guide for the Care and Use of Laboratory Animals and were approved by the Institutional Animal Care and Use Committee (IACUC) of Drexel University Philadelphia, PA (Protocol No. 20706). Neonatal rat pups born from female pregnant Sprague Dawley Crl:CD (SD) rats (Charles River Laboratories, St-Constant, QC, Canada) were used for the toxicology and PK studies to evaluate safety, determine the maximum tolerated dose (MTD) and the PK profile of AVR-48. A minimum 6-day acclimation period was allowed between receipt of the animals and the start of treatment to accustom the rats to the laboratory environment. All rat studies were approved by the IACUC of ITR Laboratories, Canada (Protocol No. 74691).
Formulation of AVR-48 for efficacy and toxicokinetic studies. For the mouse dose response efficacy studies, AVR-48 was reconstituted in 0.9% sterile normal saline to give a final dose concentration of […] as a colorless solution, and injected IP (30 μl) on P2 and P4. The PLGA encapsulated AVR-48 or the GFP-tagged analog was resuspended in deionized sterile water to make a nanosuspension with final dose concentration of 0.025, 0.05 and 0.11 mg/kg/drop. The surfactant Curosurf® (Cheisi Parma, Italy), available commercially, was delivered IN at a volume of 3 μl per nostril, on P2 and P4. For the toxicokinetic study of AVR-48 in rat pups, a formulation of 10% DMSO, 20% tetraglycol, 20% PEG 400, and 50% sterile water was made fresh before administration (Shah, Das et al. 2021).

pre-term lamb BPD model = assay: Pre-term lamb BPD model: BAL fluid protein, VEGF, ICAM-1; assay type: in vivo; settings: for VEGF concentrations in BAL fluid: vs vehicle after 10 days
Procedure: A total 9 lambs were used for this study. One dose of Curosurf was given intratracheally to the PT lamb just after birth. Randomized doses of compound AVR-48 (8) (0, 0.1, 0.3, 1.0 and 3.0 mg/kg) were administered intravenously every 12 hr after the initial dose that will be given at 6 hr after delivery to n=2-4 lambs via slow intravenous injection. The beginning treatment at 6 hr post-delivery is selected to represent the human case where neonatologists attempt to allow an infant to breath without mechanical ventilation, if possible, and then begin invasive respiratory support as necessary. Whole blood was drawn from PT lambs at the time of delivery (“pre-dose”), immediately after dosing (IAD), at 15, 30, 45, and 60 min, and at 2, 4, 8, 12, 24, 48, 72, and 96 hr after the initial dose. Plasma extractions and bioanalysis of compound AVR-48 (8) were performed using a qualified bioanalysis method already developed by us. The PK parameters were calculated following both non-Compartmental Pharmacokinetic Modeling and population Pharmacokinetic Modeling as described by Roberts et al previously (Roberts, Stockmann et al. 2016). Blood was collected every 15 min for the first 90 min of postnatal life, followed by every 3 hours for 12 hours and then spaced at 1.5 d, 2.5 d, 3.5 d, 6.5 d, and 9.5 d for analysis of cytokines (Visconti, Senthamaraikannan et al. 2018) and VEGF levels (Albertine, Dahl et al. 2010). The blood samples also were analyzed for hematology and liver enzymes. After 6-7 d of mechanical ventilation, the lambs will be weaned from mechanical ventillation and weaned to non-invasive support for 3 d to ascertain longer-term outcome (Dahl, Bowen et al. 2018). Terminally, the PT lambs were euthanized after 10 days and their heart/lungs and brain were removed. Ex vivo BAL of the right cranial lobe (it has its own bronchus, pulmonary artery and vein) was done for similar analyses. Tracheal aspirates were collected according to the protocol for cytokines, BAL protein, ICAM-1 and VEGF. The spleen was collected to analyze immune cell population, using FACS.
Bronchoalveolar lavage fluid (BALF) Analysis. Pups were sacrificed on PN14, and the trachea was cannulated with a small-caliber needle by instilling PBS endotracheally at […] pressure for 15 minutes. Two volumes of 300 μL of cold 1×PBS were instilled, gently aspirated, and pooled. Samples were centrifuged at 1000×g for 10 minutes at 4° C. The supernatant was collected, and total protein was quantified using the Pierce™ BCA Protein Assay Kit (Fisher Scientific Co, Houston, TX). The total cell count was done using the TC20 cell counter (BioRad, Hercules, CA). Similar method was followed for analyzing the protein concentration in BAL fluid collected from preterm lambs.

[2] = system: Primary splenocytes of C57BL/6J mice; assay: Polarization of mouse primary splenocytes, FACS; assay type: cell-based
Procedure: Primary splenocytes of C57BL/6J mice (n=3-5) were treated of AVR 48 for 72 hrs. PMA (200 ng/mL) was used as a positive control. The cells were washed and stained for CD11b and MHC-II and were analyzed by FACS. Dead cells were excluded by Live/dead staining during analysis. It was observed that the expression levels of MHC-II and CD11b increased upon AVR48 stimulation in a dose dependent manner in splenocytes. Monocytes were further analyzed for Ly6c. As described by (Swirski et al, J Clin Invest, 2007, 117(1):195-205. doi: 10.1172/JCI29950), spleen cells with LY6c Hi are considered as inflammatory whereas Ly6c low as resident and anti-inflammatory (FIG. 24A). Next, live singlet cells that were CD11b hi and CD11c low, were gated for F4/80 and MHC-II expression. Cells having increased expression of F4/80 and MHC-II were considered as macrophages whereas cells having low expression of F4/80 were considered as monocytes.

[3] = vs vehicle treated lambs after 10 days

CC(=O)N[C@@H]1C(Oc2ccc([N+](=O)[O-])cc2)OC(CO)C(O)C1O (stereo partly drawn) [AVR-48]
accumulation ratio using AUC(0-t) ([1]; BALF, IV dosed animals): 2.04 | decline of plasma concentration ([1]; IV dosed animals): declined in a bi-exponential fashion | Tmax (maximum plasma concentration) ([1]; Sprague Dawley Crl:CD, rat, in vivo, 150 mg/kg/day): 60 min | Tmax ([1]; Sprague Dawley Crl:CD, rat, in vivo, 150 mg/kg/day, Tmax (maximum plasma concentration)): 30 min | Tmax ([1]; Sprague Dawley Crl:CD, rat, in vivo, Tmax): 15 to 60 min | AUC(0-t) ([1]; Sprague Dawley Crl:CD, rat, in vivo, iv, AUC(0-t)): 4200 ng·h/mL | Cmax ([1]; Sprague Dawley Crl:CD, rat, in vivo, maximum concentration (Cmax)): 891 to 1070 ng/mL | accumulation in plasma ([1]; after 3 days of twice daily administration): no accumulation of the drug | VEGF concentrations in BAL fluid (pre-term lamb BPD model; high dose (3.0 mg/kg)): no effect | VEGF concentrations in BAL fluid (pre-term lamb BPD model; low doses): increase | ICAM-1 concentrations in BAL fluid (pre-term lamb BPD model; [3]): increase | total protein concentration in BAL fluid (pre-term lamb BPD model; [3]): decreased | resident/anti-inflammatory macrophages (Ly6c hi/low) ([2]; 48-72 h): produces more resident/anti-inflammatory macrophages | expression level of CD11b ([2]; 72 hrs, dose dependent manner): increased | expression level of MHC-II ([2]; 72 hrs, dose dependent manner): increased
